System: herpetic infection
Experiment: Effectiveness of treating herpetic infection upon incorporation of isoleucine
Assay type: in vivo
Settings: isoleucine incorporated into the composition
Method: The effectiveness of treating herpetic infection increases to a considerable extent upon incorporation of isoleucine into the composition, by 10-28% as compared to control. Isoleucine may be contained in the formulation of the preparation in an amount of 0.11-0.22 g per 100 ml of composition.

SMILES: CC[C@H](C)[C@H](N)C(=O)O [isoleucine]
- Increase of effectiveness of treating herpetic infection as compared to control: 10-28%
